Here are results for 22 molecules from patent US8143290B2, “Chemical compounds 572” (AstraZeneca AB, priority 2006, dated 2012).

Structures are written as SMILES. Structures can show the parent of a compound that is named as a salt.

The target in this assay is T1, recombinant human GR (Homo sapiens, UniProt P04150).
T1 construct: purchased Panvera/Invitrogen P2812 (kit P2893)
T1 sequence (P04150 1-777): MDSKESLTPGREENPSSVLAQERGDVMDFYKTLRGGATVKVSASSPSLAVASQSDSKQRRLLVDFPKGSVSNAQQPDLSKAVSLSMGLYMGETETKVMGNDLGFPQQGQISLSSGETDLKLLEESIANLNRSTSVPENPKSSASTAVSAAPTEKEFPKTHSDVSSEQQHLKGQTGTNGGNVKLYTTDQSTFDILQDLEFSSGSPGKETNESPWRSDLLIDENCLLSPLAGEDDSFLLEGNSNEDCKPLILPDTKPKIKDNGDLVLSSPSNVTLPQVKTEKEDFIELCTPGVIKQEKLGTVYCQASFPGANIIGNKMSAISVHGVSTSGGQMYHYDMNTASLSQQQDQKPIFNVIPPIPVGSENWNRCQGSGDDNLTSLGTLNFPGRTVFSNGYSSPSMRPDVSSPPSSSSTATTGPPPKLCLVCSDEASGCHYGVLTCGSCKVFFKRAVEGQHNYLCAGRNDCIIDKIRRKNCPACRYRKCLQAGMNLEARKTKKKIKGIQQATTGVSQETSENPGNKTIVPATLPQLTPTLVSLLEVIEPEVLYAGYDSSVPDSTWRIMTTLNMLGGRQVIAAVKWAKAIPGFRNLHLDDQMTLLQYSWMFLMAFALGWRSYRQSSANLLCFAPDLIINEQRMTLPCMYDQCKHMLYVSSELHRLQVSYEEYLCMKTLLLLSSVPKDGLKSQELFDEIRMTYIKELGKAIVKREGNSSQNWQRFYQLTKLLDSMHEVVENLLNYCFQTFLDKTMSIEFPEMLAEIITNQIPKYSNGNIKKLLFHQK
In words: Human Glucocorticoid Receptor (GR) Assay, fluorescence polarization. The assay is classed as binding. The note with it: GS Red tracer, incubated 2 h at r.t., XLfit model 205, read-out: GRhuFL_FP_v2 Mean IC50. In outline: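 After 2 h dark incubation at r.t., polarization reported displacement of the GS Red tracer from recombinant GR, in buffer with phosphate, molybdate, EDTA, DTT and Stabilizing Peptide. Controls: dexamethasone (100%) and DMSO (0%).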

For `CCC[C@H](NC(=O)CO)[C@H](Oc1ccc2c(cnn2-c2ccc(F)cc2)c1)c1cccc(OC)c1` [Example 93, N-((1R,2S)-1-(1-(4-fluorophenyl)-1H-indazol-5-yloxy)-1-(3-methoxyphenyl)pentan-2-yl)-2-hydroxyacetamide], the IC50 was determined as 3.7 nM. As to `C[C@H](NC(=O)C(C)(C)CO)[C@H](Oc1ccc2c(cnn2-c2ccc(F)cc2)c1)c1cccc(F)c1` [Example 253, N-[(1R,2S)-1-(3-fluorophenyl)-1-[1-(4-fluorophenyl)indazol-5-yl]oxy-propan-2-yl]-3-hydroxy-2,2-dimethyl-propanamide], the IC50 amounted to 7.5 nM. The value for `COc1cccc([C@@H](Oc2ccc3c(cnn3-c3ccc(F)cc3)c2)[C@H](C)NC(=O)C(N)=O)c1` [Example 76, N-[(1R,2S)-1-[1-(4-Fluorophenyl)indazol-5-yl]oxy-1-(3-methoxyphenyl)propan-2-yl]oxamide] was 2.2 nM; that for `C[C@H](NC(=O)C1(C)CC1)[C@H](Oc1ccc2c(cnn2-c2ccc(F)cc2)c1)c1ccc(Cl)cc1` [Example 222, N-[(1R,2S)-1-(4-chlorophenyl)-1-[1-(4-fluorophenyl)indazol-5-yl]oxy-propan-2-yl]-1-methyl-cyclopropane-1-carboxamide] was 3.5 nM; that for `COCc1ccc(C(=O)N[C@@H](C)[C@H](Oc2ccc3c(cnn3-c3ccc(F)cc3)c2)c2cccc(OC)c2)s1` [Example 299, N-[(1R,2S)-1-[1-(4-fluorophenyl)indazol-5-yl]oxy-1-(3-methoxyphenyl)propan-2-yl]-5-(methoxymethyl)thiophene-2-carboxamide] was 3.1 nM. The value for `COCC(=O)N[C@@H](C)[C@H](Oc1ccc2c(cnn2-c2ccc(F)cc2)c1)c1ccc(F)c(F)c1` [Example 258, N-[(1R,2S)-1-(3,4-difluorophenyl)-1-[1-(4-fluorophenyl)indazol-5-yl]oxy-propan-2-yl]-2-methoxy-acetamide] was 4.4 nM. In the case of `C[C@H](NC(=O)C(C)(C)C)[C@H](Oc1ccc2c(cnn2-c2ccc(F)cc2)c1)c1cccc(F)c1` [Example 174, N-[(1R,2S)-1-(3-fluorophenyl)-1-[1-(4-fluorophenyl)indazol-5-yl]oxy-propan-2-yl]-2,2-dimethyl-propanamide], the IC50 was found to be 4.1 nM. The figure for `COc1cccc([C@@H](Oc2cc3cnn(-c4ccc(F)cc4)c3cc2C)[C@H](C)NC(=O)C(C)(C)C)c1` [Example 66, N-[(1R,2S)-1-[1-(4-Fluorophenyl)-6-methyl-indazol-5-yl]oxy-1-(3-methoxyphenyl)propan-2-yl]-2,2-dimethyl-propanamide] is 4.2 nM; for `COc1ccc(F)cc1[C@@H](Oc1ccc2c(cnn2-c2ccc(F)cc2)c1)[C@H](C)NC(=O)C(C)(C)C` [Example 181, N-[(1R,2S)-1-(5-fluoro-2-methoxy-phenyl)-1-[1-(4-fluorophenyl)indazol-5-yl]oxy-propan-2-yl]-2,2-dimethyl-propanamide] it is 3.2 nM.

Regarding `COc1cccc([C@@H](Oc2ccc3c(cnn3-c3ccc(F)cc3)c2)[C@H](C)NC(=O)[C@H]2CCCN2)c1` [Example 304, (R)-N-((1R,2S)-1-(1-(4-fluorophenyl)-1H-indazol-5-yloxy)-1-(3-methoxyphenyl)propan-2-yl)pyrrolidine-2-carboxamide trifluoroacetic acid salt], the IC50 came out at 7.5 nM. The value for `COCC(=O)N[C@@H](C)[C@H](Oc1ccc2c(cnn2-c2ccc(F)cc2)c1)c1ccc(C)c(F)c1` [Example 259, N-[(1R,2S)-1-(3-fluoro-4-methyl-phenyl)-1-[1-(4-fluorophenyl)indazol-5-yl]oxy-propan-2-yl]-2-methoxy-acetamide] was 5.3 nM; that for `Cc1ccc([C@@H](Oc2ccc3c(cnn3-c3ccc(F)cc3)c2)[C@H](C)NC(=O)c2ncc(C)s2)c(C)c1` [Example 197, N-[(1R,2S)-1-(2,4-dimethylphenyl)-1-[1-(4-fluorophenyl)indazol-5-yl]oxy-propan-2-yl]-5-methyl-1,3-thiazole-2-carboxamide] was 4.9 nM; that for `C[C@H](NC(=O)C1(C)CC1)[C@H](Oc1ccc2c(cnn2-c2ccc(F)cc2)c1)c1cccc(Cl)c1` [Example 218, N-[(1R,2S)-1-(3-chlorophenyl)-1-[1-(4-fluorophenyl)indazol-5-yl]oxy-propan-2-yl]-1-methyl-cyclopropane-1-carboxamide] was 3.3 nM. The value for `Cc1cnc(C(=O)N[C@@H](C)[C@H](Oc2ccc3c(cnn3-c3ccc(F)cc3)c2)c2cc(C)c(C)cc2C)s1` [Example 206, N-[(1R,2S)-1-[1-(4-fluorophenyl)indazol-5-yl]oxy-1-(2,4,5-trimethylphenyl)propan-2-yl]-5-methyl-1,3-thiazole-2-carboxamide] was 7.5 nM; that for `Cc1cnc(C(=O)N[C@@H](C)[C@H](Oc2ccc3c(cnn3-c3ccc(F)cc3)c2)c2ccc(F)cc2C)s1` [Example 200, N-[(1R,2S)-1-(4-fluoro-2-methyl-phenyl)-1-[1-(4-fluorophenyl)indazol-5-yl]oxy-propan-2-yl]-5-methyl-1,3-thiazole-2-carboxamide] was 4.6 nM. `C[C@H](NC(=O)C(F)(F)F)[C@H](Oc1ccc2c(cnn2-c2ccc(F)cc2)c1)c1ccc(Cl)cc1` [Example 160, N-[(1R,2S)-1-(4-chlorophenyl)-1-[1-(4-fluorophenyl)indazol-5-yl]oxy-propan-2-yl]-2,2,2-trifluoro-acetamide]: the IC50 stood at 4.1 nM. In the case of `CCC[C@H](NC(=O)CO)[C@H](Oc1ccc2c(cnn2-c2ccc(F)cc2)c1)c1ccccc1` [Example 91, N-((1R,2S)-1-(1-(4-fluorophenyl)-1H-indazol-5-yloxy)-1-phenylpentan-2-yl)-2-hydroxyacetamide], the IC50 was 5.2 nM. The value for `CCCc1ccc([C@@H](Oc2ccc3c(cnn3-c3ccc(F)cc3)c2)[C@H](C)NC(=O)C(F)(F)F)cc1` [Example 165, 2,2,2-trifluoro-N-[(1R,2S)-1-[1-(4-fluorophenyl)indazol-5-yl]oxy-1-(4-propylphenyl)propan-2-yl]acetamide] was 6.4 nM; that for `COc1ccc(F)cc1[C@@H](Oc1ccc2c(cnn2-c2ccc(F)cc2)c1)[C@H](C)NC(=O)c1ncc(C)s1` [Example 202, N-[(1R,2S)-1-(5-fluoro-2-methoxy-phenyl)-1-[1-(4-fluorophenyl)indazol-5-yl]oxy-propan-2-yl]-5-methyl-1,3-thiazole-2-carboxamide] was 5.3 nM; that for `COc1cccc([C@@H](Oc2ccc3c(cnn3-c3ccc(F)cc3)c2)[C@H](C)NC(=O)c2ccccn2)c1` [Example 89, N-((1R,2S)-1-(1-(4-fluorophenyl)-1H-indazol-5-yloxy)-1-(3-methoxyphenyl)propan-2-yl)picolinamide] was 4.4 nM. The figure for `CC(C)C(=O)NC(=O)C(Oc1ccc2c(cnn2-c2ccc(F)cc2)c1)c1ccccc1` (stereo not shown) [Example 137, N-[2-[1-(4-fluorophenyl)indazol-5-yl]oxy-2-phenyl-acetyl]-2-methyl-propanamide] is 360 nM. The figure for `Cc1cccc([C@@H](Oc2ccc3c(cnn3-c3ccc(F)cc3)c2)[C@H](C)NC(=O)C(C)(C)C)c1` [Example 185, N-[(1R,2S)-1-[1-(4-fluorophenyl)indazol-5-yl]oxy-1-(3-methylphenyl)propan-2-yl]-2,2-dimethyl-propanamide] is 5.5 nM.
